From ChEMBL document CHEMBL1143571 (J Med Chem, 2005)

Columns and labels:
[1] = biological target: T1, D(3) dopamine receptor (Homo sapiens, UniProt P35462); type: cell-based, CHO
Description: Inhibition constant against [3H]-spiperone binding to human Dopamine receptor D3 expressed in CHO cells

[2] = biological target: D(1A) dopamine receptor (Bos taurus, UniProt Q95136); assay: Inhibition constant against [3H]SCH-23390 binding to Dopamine receptor D1 in bovine striatal membranes; type: cell membranes, Striatum, Membrane
[3] = biological target: D(2) dopamine receptor (Rattus norvegicus) (UniProt P61169); assay: Intrinsic activity to sitmulate rat Dopamine receptor D2L mediated [3H]thymidine incorporation into growing cells using mitogenesis assay
[4] = biological target: D(2) dopamine receptor (Rattus norvegicus) (UniProt P61169); assay: Intrinsic activity to stimulate rat Dopamine receptor D2S mediated [3H]-thymidine incorporation into growing cells using mitogenesis assay
[5] = biological target: T2, D(2) dopamine receptor (Homo sapiens, UniProt P14416); type: cell-based, CHO
[6] = biological target: T2, D(2) dopamine receptor; type: cell-based, CHO; remark: listed apart in the source
[7] = biological target: T2, D(2) dopamine receptor; type: cell-based, CHO; remark: listed apart in the source
Description: High inhibition constant against [3H]spiperone binding to human Dopamine receptor D2L expressed in CHO cells

[8] = biological target: T3, D(4) dopamine receptor (Homo sapiens, UniProt P21917); type: cell-based, CHO
T3 sequence (P21917 whole entry): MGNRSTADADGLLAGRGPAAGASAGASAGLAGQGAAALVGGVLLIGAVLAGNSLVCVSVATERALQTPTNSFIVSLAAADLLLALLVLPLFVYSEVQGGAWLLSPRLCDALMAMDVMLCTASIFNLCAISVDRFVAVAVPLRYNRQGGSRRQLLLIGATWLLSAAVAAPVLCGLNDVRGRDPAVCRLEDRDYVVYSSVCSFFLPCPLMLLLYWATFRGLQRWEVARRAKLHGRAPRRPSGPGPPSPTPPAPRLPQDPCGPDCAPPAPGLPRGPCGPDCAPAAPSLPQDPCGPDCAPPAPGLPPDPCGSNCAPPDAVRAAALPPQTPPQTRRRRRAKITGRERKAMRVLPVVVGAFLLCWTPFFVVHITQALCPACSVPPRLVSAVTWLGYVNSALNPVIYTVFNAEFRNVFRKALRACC

[9] = biological target: T2, D(2) dopamine receptor; type: cell-based, CHO; remark: listed apart in the source
[10] = biological target: T3, D(4) dopamine receptor; type: cell-based, CHO; remark: listed apart in the source
Description: High inhibition constant against [3H]spiperone binding to human Dopamine receptor D4.4 expressed in CHO cells

[11] = biological target: T4, D(2) dopamine receptor (Rattus norvegicus, UniProt P61169); assay: Effective concentration to stimulate rat Dopamine receptor D2L mediated [3H]thymidine incorporation into growing cells using mitogenesis assay
[12] = biological target: T1, D(3) dopamine receptor
Description: Effective concentration to stimulate human Dopamine receptor D3 mediated [3H]-thymidine incorporation into growing cells using mitogenesis assay

[13] = biological target: T4, D(2) dopamine receptor; assay: Effective concentration to stimulate rat Dopamine receptor D2S mediated [3H]thymidine incorporation into growing cells using mitogenesis assay
[14] = biological target: T3, D(4) dopamine receptor
Description: Effective concentration to stimulate human Dopamine receptor D4.2 mediated [3H]thymidine incorporation into growing cells using mitogenesis assay

[15] = biological target: T1, D(3) dopamine receptor; remark: listed apart in the source
[16] = biological target: T1, D(3) dopamine receptor; remark: listed apart in the source

Chain of D(1A) dopamine receptor (Q95136 whole entry): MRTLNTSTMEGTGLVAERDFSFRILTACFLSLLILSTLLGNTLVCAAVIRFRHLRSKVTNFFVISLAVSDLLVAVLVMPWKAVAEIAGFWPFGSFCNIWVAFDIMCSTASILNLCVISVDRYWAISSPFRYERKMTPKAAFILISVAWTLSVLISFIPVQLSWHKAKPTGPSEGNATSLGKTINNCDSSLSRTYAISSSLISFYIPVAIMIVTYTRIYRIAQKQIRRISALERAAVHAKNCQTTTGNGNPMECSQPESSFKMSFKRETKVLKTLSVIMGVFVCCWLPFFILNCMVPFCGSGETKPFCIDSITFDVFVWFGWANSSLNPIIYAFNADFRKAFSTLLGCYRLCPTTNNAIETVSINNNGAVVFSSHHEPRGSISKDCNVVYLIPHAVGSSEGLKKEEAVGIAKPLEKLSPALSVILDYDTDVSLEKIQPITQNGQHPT
T2 sequence (P14416 whole entry): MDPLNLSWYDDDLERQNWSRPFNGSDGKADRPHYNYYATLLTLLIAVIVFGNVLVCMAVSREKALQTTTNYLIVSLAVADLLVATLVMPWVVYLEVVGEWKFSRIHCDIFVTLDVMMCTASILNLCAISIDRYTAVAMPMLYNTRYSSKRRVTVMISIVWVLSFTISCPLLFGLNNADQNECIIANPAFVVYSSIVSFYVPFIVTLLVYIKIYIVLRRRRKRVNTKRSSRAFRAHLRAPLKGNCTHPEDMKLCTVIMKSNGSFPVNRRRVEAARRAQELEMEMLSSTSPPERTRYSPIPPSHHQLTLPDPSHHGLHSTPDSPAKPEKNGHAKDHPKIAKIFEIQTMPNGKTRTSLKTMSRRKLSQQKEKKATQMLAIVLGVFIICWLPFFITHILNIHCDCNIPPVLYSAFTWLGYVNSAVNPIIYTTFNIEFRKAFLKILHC
T4 sequence (P61169 whole entry): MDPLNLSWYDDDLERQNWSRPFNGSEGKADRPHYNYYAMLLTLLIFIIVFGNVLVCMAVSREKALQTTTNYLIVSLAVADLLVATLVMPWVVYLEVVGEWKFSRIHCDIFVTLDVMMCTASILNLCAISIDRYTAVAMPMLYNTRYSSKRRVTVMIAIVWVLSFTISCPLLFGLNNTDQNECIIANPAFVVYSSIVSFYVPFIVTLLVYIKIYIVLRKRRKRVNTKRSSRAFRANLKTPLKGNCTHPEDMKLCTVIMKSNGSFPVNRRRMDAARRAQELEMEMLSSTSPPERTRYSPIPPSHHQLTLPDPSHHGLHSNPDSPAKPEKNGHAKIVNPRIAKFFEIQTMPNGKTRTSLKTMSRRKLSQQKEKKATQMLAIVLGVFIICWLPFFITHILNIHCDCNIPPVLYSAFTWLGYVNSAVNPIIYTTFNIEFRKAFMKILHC
Chain of D(2) dopamine receptor (Rattus norvegicus) (P61169 whole entry): as above
T1 sequence (P35462 whole entry): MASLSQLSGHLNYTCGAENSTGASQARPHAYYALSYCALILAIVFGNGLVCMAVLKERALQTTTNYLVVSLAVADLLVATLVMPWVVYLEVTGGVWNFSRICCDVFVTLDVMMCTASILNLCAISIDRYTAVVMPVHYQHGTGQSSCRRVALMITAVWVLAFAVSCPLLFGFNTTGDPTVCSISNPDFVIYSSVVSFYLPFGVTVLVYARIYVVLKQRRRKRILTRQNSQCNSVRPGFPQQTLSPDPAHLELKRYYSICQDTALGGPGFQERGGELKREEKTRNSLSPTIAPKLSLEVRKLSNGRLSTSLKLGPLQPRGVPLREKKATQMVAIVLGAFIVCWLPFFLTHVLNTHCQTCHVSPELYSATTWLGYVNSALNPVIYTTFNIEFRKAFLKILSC

Row | SMILES | Ki [1] [µM] | other results
1 | CCCN(CCC)[C@H]1CCc2c(ccn2C=O)C1 | 0.0389 | –
2 | CCCN(CCC)[C@H]1CCn2c(/C=N/O)ccc2C1 | 0.0309 | –
3 | CCCN(CCC)[C@@H]1CCn2c(/C=N\O)ccc2C1 | 4.79 | –
4 | CCCN(CCC)[C@@H]1CCn2ccc(CO)c2C1 | 0.324 | –
5 | CCCN(CCC)[C@H]1CCn2c(ccc2C(=O)C(F)(F)F)C1 | 0.0229 | –
6 | CCCN(CCC)[C@@H]1CCn2c(ccc2-c2ccccc2)C1 | 2.4 | –
7 | CCCN(CCC)[C@@H]1CCn2cc(C)cc2C1 | 0.912 | –
8 | CCCN[C@H]1CCc2nc(N)sc2C1 [PRAMIPEXOLE] | – | Ki [2]: > 20 µM; Intrinsic activity [3]: 85%; Intrinsic activity [4]: 103%
9 | CCCN(CCC)[C@@H]1CCn2cccc2C1 | 1.66 | –
10 | CCCN(CCC)[C@@H]1CCn2c(C=C(C#N)C#N)ccc2C1 | 6.03 | –
11 | CCCN(CCC)[C@H]1CCn2c(ccc2CN(C)C)C1 | 3.63 | –
12 | CCCN(CCC)[C@H]1CCn2cccc2C1 | 0.575 | –
13 | CCCN(CCC)[C@@H]1CCn2ccc(C)c2C1 | 1.45 | –
14 | CCCN(CCC)[C@@H]1CCn2c(ccc2C(=O)OCC)C1 | 0.324 | –
15 | Oc1ccc2c(c1O)-c1cccc3c1[C@@H](C2)NCC3 | 0.0589 | –
16 | CCCN(CCC)[C@@H]1CCn2c(/C=N/O)ccc2C1 | 2.09 | –
17 | CCCN(CCC)[C@H]1CCn2c(C=O)ccc2C1 | 0.00525 | Ki [5]: 0.041 µM; Ki [2]: > 20 µM; Ki [6]: 6.9 µM; Ki [7]: 0.052 µM; Ki [8]: 2.5 µM; Ki [9]: 3 µM; Ki [10]: 0.032 µM; EC50 [11]: 0.011 µM; EC50 [12]: 0.0011 µM; EC50 [13]: 0.079 µM; EC50 [14]: 4.2 µM; Intrinsic activity [3]: 98%; Intrinsic activity [4]: 101%; Ki [15]: 0.0053 µM
18 | CCCN(CCC)[C@H]1CCn2ccc(C)c2C1 | 0.676 | –
19 | CCCN(CCC)[C@@H]1CCn2c(ccc2C(=O)C(Cl)(Cl)Cl)C1 | 0.0871 | –

Row | SMILES | Ki [1] [µM] | other results
20 | CCCN(CCC)[C@H]1CCn2c(ccc2C(=O)c2ccccc2)C1 | 1.91 | –
21 | CCCN(CCC)[C@H]1CCn2c(ccc2-c2ccccc2)C1 | 7.94 | –
22 | CCCN(CCC)[C@H]1CCn2c(ccc2C(=O)OCC)C1 | 4.37 | –
23 | CCCN(CCC)[C@H]1CCn2c(C#N)ccc2C1 | 0.00724 | Ki [5]: 0.13 µM; Ki [2]: > 20 µM; Ki [6]: 6.5 µM; Ki [7]: 0.19 µM; Ki [8]: 9.7 µM; Ki [9]: 5.1 µM; Ki [10]: 0.04 µM; EC50 [11]: 0.042 µM; EC50 [12]: 0.0024 µM; EC50 [13]: 0.13 µM; Ki [16]: 0.14 µM; Intrinsic activity [3]: 99%; Intrinsic activity [4]: 95%; Ki [15]: 0.0072 µM
24 | CCCN(CCC)[C@@H]1CCn2ccc(C=O)c2C1 | 0.501 | –
25 | CCCN(CCC)[C@@H]1CCn2c(ccc2C(=O)C(F)(F)F)C1 | 2.51 | –
26 | CCCN(CCC)[C@@H]1CCn2c(ccc2CN(C)C)C1 | 12 | –
27 | CCCN(CCC)[C@@H]1CCn2c(C#N)ccc2C1 | 2.82 | –
28 | CCCN(CCC)[C@@H]1CCn2c(ccc2C(=O)c2ccccc2)C1 | 1.55 | –
29 | CCCN(CCC)[C@@H]1CCn2c(ccc2C(C)=O)C1 | 2.82 | –
30 | CCCN(CCC)[C@H]1CCn2c(ccc2C(=O)C(Cl)(Cl)Cl)C1 | 0.263 | –
31 | CCCN(CCC)[C@@H]1CCn2c(C)ccc2C1 | 0.617 | –
32 | CCCN(CCC)[C@H]1CCn2cc(C)cc2C1 | 0.794 | –
33 | CCCN(CCC)[C@H]1CCn2c(/C=N\O)ccc2C1 | 0.049 | –
34 | CCCN(CCC)[C@H]1CCn2c(C)ccc2C1 | 0.417 | –
35 | CCCN(CCC)[C@H]1CCn2c(C=C(C#N)C#N)ccc2C1 | 0.0603 | –
36 | CCCN(CCC)[C@H]1CCn2c(ccc2C(C)=O)C1 | 0.0457 | –
37 | CCCN(CCC)[C@@H]1CCc2c(ccn2C=O)C1 | 0.0437 | –
38 | CCCN(CCC)[C@@H]1CCn2c(CO)ccc2C1 | 0.724 | –
